From patent US8603527B2, “Pharmaceutical formulations of a substituted diaminopurine” (Signal Pharmaceuticals, LLC, priority 2010, dated 2013)

Experiments:
[1] = tested on: healthy subjects; assay: Safety in the gender, age and food study in healthy subjects; type: in vivo, human; conditions: 100 mg single oral dose, all age groups, each gender, fasting and fed
Description: Group 1 (Healthy Females) and Group 3 (Elderly Males and Females): Subjects were screened within 21 days of dosing and eligible subjects were admitted to the study center on Day −1 (i.e., at least 12 hours predose) for baseline assessments and confirmation of eligibility. A single oral dose of 100 mg Compound I was administered on Day 1 following an overnight fast of at least 8 hours. Subjects were discharged from the study center the morning of Day 3 upon completion of study procedures and returned to the study center for PK blood draws and safety assessments on Days 4, 5, and 6. The end-of-study (EOS) evaluation also occurred on Day 6. Subjects returned to the study center for a follow-up visit between 7 and 10 days from EOS. Serial blood samples were collected predose and up to 120 hours postdose for the determination of plasma Compound I concentrations. Safety was monitored throughout the study; safety evaluations included AE reporting, physical examinations, vital sign measurements, ECGs, and clinical laboratory safety tests. All AEs and concomitant medications were assessed and recorded throughout the study from the time the ICF was signed through follow-up.
Group 2 (Healthy Males): Subjects in Group 2 participated in this portion of the study to evaluate food effect using a randomized, open-label, single dose, 2-period (Period 1 and Period 2), 2-sequence, 2-way crossover design. […]

[2] = Relative bioavailability and food effect crossover study of formulated capsules in healthy male subjects; type: in vivo, human; conditions: Treatments A-D, single 100 mg dose
Excerpt: Methods: This was an open-label, randomized, 4-treatment, 4-period, 4-sequence crossover study in healthy subjects to evaluate relative bioavailability and food effect on Compound I capsule formulations. The study consisted of a screening phase (Day −21 to Day −2) for subject eligibility, a baseline/admission phase (Day −1) for each period, treatment and assessment phase (Days 1 to Day 8) for each period, and a follow-up visit (Day 15±2 days from the last dose). During each period, subjects were domiciled at the study site from Day −1 through Day 2 (discharged on Day 3 after PK sampling and safety evaluations). Subjects then visited the study center on Days 4, 6, and 8 of each period for PK sampling and safety evaluations. Between periods, there was a minimum of 10 days of washout from the prior dose to the next dose (no more than 14 days).
Sixteen (16) male subjects were be randomized to one of the following 4 treatment sequences (4 subjects per sequence) on Day 1 of Period 1:
Subjects started fasting from the night of Day −1 for a minimum of 10 hours prior to dosing. On Day 1 of each period, subjects received their randomized treatment of Compound I at approximately 8 AM. […] Approximately 5 mL of blood sample was collected on days 1-8 for PK analysis. Subjects received standardized meals scheduled at approximately the same time during confinement in each period of the study.

**Q.** Which tolerability [1] does the source give for O[C@H]1CC[C@H](Nc2ncc3nc(Nc4c(F)cc(F)cc4F)n([C@H]4CCOC4)c3n2)CC1 [Compound I, 4-((9-((3S)-tetrahydro-3-furanyl)-8-((2,4,6-trifluorophenyl)amino)-9H-purin-2-yl)amino)-trans-cyclohexanol] here?
**A.** The tolerability was “well tolerated”.

**Q.** What about the “AUCt, Intra-Subject CV %” value [2] of the same compound?
**A.** Its value is 16.1%.

**Q.** And the “AUC∞, Intra-Subject CV %” value [2]?
**A.** The value was 15.3%.

**Q.** What about the “Cmax, Intra-Subject CV %” value [2] of the same compound?
**A.** Its value is 36.8%.
